From US7622479B2, “Bicyclic derivative, its production and use” (Takeda Pharmaceutical Company Limited, priority 2001, dated 2009)
Marks after values point to notes of the source that are not given here.

How the values were obtained:
[1] = tested on: HER2-expressing SK-BR-3 human breast cancer cells; assay: Cell proliferation suppression test, SK-BR-3 (SRB staining); assay type: cell-based; details: SK-BR-3 cells, incubated for 3 or 5 days, SRB protein staining, absorbance 550 nm, read-out: Cell proliferation inhibition (IC50; μM) SK-BR-3
Method: (§1) 100 μl of a suspension of HER2-expressing SK-BR-3 human breast cancer cells or 100 μl of BT-474 (2,000 cells) or 100 μl (4,000 cells) of a suspension of normal human cell fibroblast MRC-5 was sown in a 96-well microplate and cultured at 37° C. in a 5% carbonic acid gas incubator. On the following day, 100 μl of a solution of the test compound which had previously been diluted 2-fold, was added and the mixture was incubated for 3 or 5 days. The cells were fixed and washed with 5% glutaraldehyde solution and further fixed with 10% trichloroacetic acid solution, after which a 0.4% (W/V) SRB 0.4% (W/V) solution (dissolved in 1% acetic acid) was added to stain the cell protein. After the pigment solution was removed and the plate was washed with 1% acetic acid solution, 100 μl of extract (10 mM tris buffer solution) was added to extract the pigment; absorbance was measured at an absorption wavelength of 550 nm to quantify the amount of cells as protein content.
(§2) Taking the absorbance for the control group, which received no test compound solution, as 100% the ratio of the absorbance for each treatment group was determined, and the compound concentration required to achieve 50% suppression of the residual cell content relative to the control (IC50 value) was calculated.

[2] = tested on: BT-474 human breast cancer cells; assay: Cell proliferation suppression test, BT-474 (SRB staining); assay type: cell-based; details: BT-474 cells, incubated for 3 or 5 days, SRB protein staining, absorbance 550 nm, read-out: Cell proliferation inhibition (IC50; μM) BT-474
Method: as §1, §2

[3] = tested on: normal human cell fibroblast MRC-5; assay: Cell proliferation suppression test, normal cells MRC-5 (SRB staining); assay type: cell-based; details: MRC5, MRC-5 normal fibroblasts, incubated for 3 or 5 days, SRB protein staining, absorbance 550 nm, read-out: Cell proliferation inhibition (IC50; μM) MRC-5
Method: as §1, §2

[4] = tested on: BT-474 human cancer cells; assay: Antitumor test in nude mouse model implanted with human cancer cells; assay type: in vivo; details: twice each day, for 14 days, nude BALB/c female mouse, BT-474 subcutaneous, tumor volume change vs Gelucire control
Method: 1×10^7 BT-474 human cancer cells were suspended in Matrigel solution, and the suspension was subcutaneously transplanted to a nude BALB/c female mouse (5 weeks old). In order to enhance the take ratio of the tumor, an estrogen preparation was intramuscularly administered to a hind leg at plantation and 7 days after transplantation.
A Gelucire solution (0.3 or 1 mg/ml) of the compound of the present invention was orally administered at a dosage of 10 ml/kg, twice each day, for 14 days. During the first day and the last day that the administration was carried out, the tumor diameter was measured, and the tumor volume was calculated using the formula: tumor volume=major axis x minor axis x minor axis x(1/2). The T/C (%) was calculated as the ratio of the value obtained by subtracting the tumor volume on the last day of administration from the tumor volume on the first day of administration for the control group (to which only Gelucire was administered) and the value obtained by subtracting the tumor volume on the last day of administration from the tumor volume on the first day of administration for the treatment group.

SMILES	IC50 [1] [µM]	IC50 [2] [µM]	IC50 [3] [µM]	T/C(%) 3 mg/kg ([4]; 3 mg/kg orally)	T/C(%) 10 mg/kg ([4]; 10 mg/kg orally)
COc1cccc(-c2nc3cc(-c4ccccc4)cnc3[nH]2)c1 [Example 1, 2-(3-methoxyphenyl)-6-phenyl-1H-imidazo[4,5-b]pyridine]	0.12	0.28	> 25	58* %	31** %
COc1ccc(Cc2nc3cc(-c4ccco4)cnc3[nH]2)cc1OC [Example 97, 2-(3,4-dimethoxybenzyl)-6-(2-furyl)-1H-imidazo[4,5-b]pyridine]	0.94	0.49	> 25		
Clc1ccc(Cc2nc3cc(-c4ccco4)cnc3[nH]2)cc1 [Example 113, 2-(4-chlorobenzyl)-6-(2-furyl)-1H-imidazo[4,5-b]pyridine]	0.22	0.25	≥ 25		
COc1cccc(-c2nc3ncc(-c4ccccc4)cc3n2Cc2ccccc2O)c1 [Example 157, 2-[[2-(3-methoxyphenyl)-6-phenyl-1H-imidazo[4,5-b]pyridin-1-yl]methyl]phenol]	0.23	0.19	> 25		
COc1cccc(-c2nc3ncc(-c4ccccc4)cc3n2CC2CC2)c1 [Example 202, 1-(cyclopropylmethyl)-2-(3-methoxyphenyl)-6-phenyl-1H-imidazo[4,5-b]pyridine]	0.55	1.1	21		
Fc1ccc(/C=C/c2nc3cc(-c4ccco4)ccc3o2)c(F)c1 [Example 219, 2-[(E)-2-(2,4-difluorophenyl)ethenyl]-5-(2-furyl)benzoxazole]	0.14	0.83	> 25		
